According to publication PMC4964386, “Synthesis, Characterization, and Cytotoxicity of the First Oxaliplatin Pt(IV) Derivative Having a TSPO Ligand in the Axial Position” (International Journal of Molecular Sciences, 2016):
Where two headings read alike, the source gives them in different places.

Columns and labels:
human U87 glioblastoma = experiment: MTT cell proliferation assay, U87; format: cell-based; details: U87, 72 h treatment, read-out: IC50 (concentration inducing 50% cell survival inhibition)
Procedure: (§1) The cytotoxicity of the compounds, expressed as IC50 values after 72 h incubation (except in two cases where it is expressed as the % of cell viability at the maximum concentration tested of 100 μM) are reported in Table 3.
(§2) Human MCF7 breast carcinoma, human U87 glioblastoma, human LoVo colon adenocarcinoma cell lines and C6 rat glioma cells were used. As recommended for these cell lines, the base medium used (EuroClone, Pero (MI), Italy) was RPMI for MCF7 cells, DMEM for U87 and C6 cells, and F-12/HAM for LoVo cells, enriched with fetal bovine serum (10%), penicillin (100 U/mL)/streptomycin (100 μg/mL) (1%) and glutamine 200 mM (1%) (EuroClone, Pero (MI), Italy). Cells were incubated at 37 °C under an atmosphere containing 5% CO2.
(§3) Determination of cell growth inhibition was performed on MCF7, U87 and LoVo cell lines, using the 3-[4,5-dimethylthiazol-2-yl]-2,5-diphenyltetrazoliumbromide (MTT) assay. The determination of the % of cell viability after treatment with the test compounds, was performed as described by Denora et al.. Briefly, cells were dispensed on 96 microtiter plates at a density of 5000 cells/well and, after overnight incubation, were exposed for 72 h to solutions of the compounds with concentration in the range 0.01–100 µM. After addition of MTT (10 μL of 0.5% w/v in PBS) and incubation for an additional 3 h at 37 °C, the cells were lysed with 100 μL of DMSO/EtOH 1:1 (v/v) solution, dispensed in each well. A PerkinElmer 2030 multilabel reader Victor TM X3 (manufactured for WALLAC Oy, Turku, Finland by PerkinElmer Singapore was used for the absorbance determination at 570 nm.

[1] = test system: human LoVo colon adenocarcinoma; experiment: MTT cell proliferation assay, LoVo; format: cell-based; details: 72 h treatment; for IC50: MTT, read-out: IC50 (concentration inducing 50% cell survival inhibition)
Procedure: as §1, §2, §3

LoVo colon cancer cells = experiment: Platinum cellular uptake by ICP-MS; format: cell-based, human
Description: As already reported, oxaliplatin is a chemotherapeutic drug mainly used for the treatment of colorectal cancer, therefore, we extended our investigation only to LoVo cells. First we measured the intracellular accumulation of platinum by ICP-MS. […] Most likely, organic cation transporters (OCT) may facilitate the uptake of oxaliplatin [47] at short time exposure and then, after saturation, the passive diffusion of the most lipophilic compounds becomes prominent.
A Varian 820-MS ICP mass spectrometer (Varian Italia, Cernusco sul Naviglio (MI), Italy) was used to perform the inductively coupled plasma mass spectrometry (ICP-MS) analyses for the determination of the platinum cellular uptake in LoVo colon cancer cells. Cells were seeded in 60 mm tissue culture dishes at a density of 500,000 cells/dish and incubated at 37 °C in a humidified atmosphere with 5% CO2. […] The platinum content was determined by ICP-MS.

LoVo cells = experiment: Cell cycle analysis by flow cytometry (propidium iodide); format: cell-based, human; details: for Perturbation of cell cycle progression: 24 h treatment at IC50 concentrations (compound 2 at 100 µM), FCM
Procedure: Figure 9 Flow cytometric analysis of LoVo cells stained with propidium iodide after 24 h of treatment with test compounds.
Then, the experimental procedure described in our previous work was performed.

TSPO = target: T1, TSPO (Rattus norvegicus, UniProt P16257); experiment: TSPO receptor binding assay, displacement of [3H]-PK 11195
T1 construct: Membranes from C6 rat glioma cells were prepared as described by Piccinonna et al; endogenous in cells; host or cells: C6 rat glioma cell membranes
T1 sequence (P16257 whole entry): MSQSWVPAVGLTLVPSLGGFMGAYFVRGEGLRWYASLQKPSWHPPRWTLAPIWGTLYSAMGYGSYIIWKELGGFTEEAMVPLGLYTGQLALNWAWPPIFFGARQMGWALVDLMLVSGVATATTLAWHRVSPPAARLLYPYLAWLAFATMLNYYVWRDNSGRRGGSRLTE
Procedure: Membranes from C6 rat glioma cells were prepared as described by Piccinonna et al. with minor modifications. In brief, cells scraped in PBS and harvested, were then homogenized with a Brinkman Polytron (Kinematica AG, Münstertäler, Germany). After centrifugation at 37,000× g for 30 min at 4 °C the resulting pellet was resuspended in ice-cold 10 mM PBS and stored at −80 °C until use.

[2] = test system: human MCF7 breast carcinoma; experiment: MTT cell proliferation assay, MCF7; format: cell-based; details: MCF7, 72 h treatment; for IC50: MTT, read-out: IC50 (concentration inducing 50% cell survival inhibition)
Procedure: as §1, §2, §3

[3] = Stability in physiological-like solution by 1H-NMR and HPLC; format: physicochemical
Procedure: The stability of 3 was investigated by ^1H-NMR spectroscopy in DMSO-d6/D2O (5:95, v/v) at pH 7.4 (2 mM phosphate buffer) and 37 °C. […] After 8 h of incubation we observed a decrease in intensity of the peaks of 3 and the concomitant increase of a new set of peaks, marked with ● in Figure 8b (H5, 8.09 ppm; H7, 7.44 ppm; H16/20 7.35 ppm), that was assigned to compound 2 by comparison with a spectrum of the TSPO ligand recorded in similar conditions.
An HPLC analysis of the sample was performed after 108 h incubation at 37 °C. […] No reduction of the Pt(IV) complex occurred under the conditions used in this experiment.
The sample was incubated at 37 °C in the dark and ^1H-NMR spectra recorded at different time intervals.
The NMR solution was further analyzed by HPLC analysis. Stationary phase: Waters Symmetry RP-C18 column, 5 μm, 4.6 × 250 mm, 100 Å. Mobile phase: phase A = water and phase B = Acetonitrile; isocratic elution 5% phase B for 5 min, linear gradient from 5% to 50% phase B in 10 min, isocratic elution 50% phase B for 7 min, linear gradient from 50% to 5% phase B in 2 min, isocratic elution 5% phase B for 6 min. Flow rate = 0.7 mL·min^−1. UV-visible detector set at 220 nm.

[4] = after 4 h treatment at IC50 concentration
[5] = after 24 h treatment at IC50 concentration
[6] = Homo sapiens, 100 µM (maximum concentration tested)

Row | Compound | IC50 (human U87 glioblastoma) [nM] | IC50 [1] [nM] | Uptake by LoVo Cells (ppb of Pt) (LoVo colon cancer cells; [4]) | Uptake by LoVo Cells (ppb of Pt) (LoVo colon cancer cells; [5]) | Perturbation of cell cycle progression (LoVo cells) | IC50 (TSPO) [nM] | IC50 (human U87 glioblastoma; Homo sapiens) [nM] | viability at 100 µM [1, 6] [%] | viability at 100 µM [2, 6] [%] | IC50 (TSPO; displacement of [3H]-PK 11195 (0.7 nM), Table 2: rat cerebral cortex, method: C6 rat glioma cell membranes, 90 min, 25 °C, read-out: IC50 TSPO) [nM] | Half-life of the complex (hydrolysis of ester bond) ([3]; DMSO-d6/D2O (5:95, v/v), pH 7.4 (2 mM phosphate buffer), 37 °C, 52 μM, from NMR) | Time after which signals disappeared completely ([3]; DMSO-d6/D2O (5:95, v/v), pH 7.4 (2 mM phosphate buffer), 37 °C, 1H-NMR) [h] | Degradation behaviour in physiological-like conditions ([3]; pH 7.4, 37 °C, HPLC after 108 h incubation) | IC50 ([1]; listed as cis,trans,cis-[Pt(ethanedioato)Cl{2-(2-(4-(6,8-dichloro-3-(2-(dipropylamino)-2-o))))) [nM] | IC50 [2] [nM] | Induction of apoptosis (LoVo cells; 24 h treatment)
1 | O=C1[O][Pt-2]2([NH2+]C3CCCC[C@H]3[NH2+]2)[O]C1=O (stereo in doubt) [Oxaliplatin, trans-1R,2R-diaminocyclohexane(oxalato)platinum(II)] | 3100 ± 200 | 460 ± 10 | 0.24 ± 0.04 ppb of Pt | 0.38 ± 0.01 ppb of Pt | delayed the S-phase and started to accumulate cells in G2/M-phase and G0/G1 phase |  |  |  |  |  |  |  |  |  |  | 
2 | CCCN(CCC)C(=O)Cc1c(-c2ccc(OCC(=O)O)cc2)nc2c(Cl)cc(Cl)cn12 [compound 2, 2-(4-(6,8-dichloro-3-(2-(dipropylamino)-2-oxoethyl)imidazo[1,2-a]pyridin-2-yl)phenoxy)acetic acid] |  |  |  |  | induced a sub-G0/G1 cell population | 2.12 ± 0.1 | 70200 ± 300 | 65 | 53 |  |  |  |  |  |  | 
3 | CCCN(CCC)C(=O)Cc1c(-c2ccc(OCC(=O)OCC[O][Pt]3([Cl])[O]C(=O)C(=O)[O]3)cc2)nc2c(Cl)cc(Cl)cn12.N[C@@H]1CCCC[C@H]1N [compound 3, cis,trans,cis-[Pt(ethanedioato)Cl{2-(2-(4-(6,8-dichloro-3-(2-(dipropylamino)-2-oxoethyl)imidazo[1,2-a]pyridin-2-yl)phenoxy)acetate)-ethanolato}(1R,2R-DACH)]] | 16100 ± 300 | 2300 ± 100 | 0.33 ± 0.02 ppb of Pt | 0.77 ± 0.02 ppb of Pt | no notable changes compared to oxaliplatin |  |  |  |  | 18.6 ± 0.84 | approximately 24 h | 108 | slow hydrolysis of the ester bond | 2310 | 14100 ± 100 | did not induce apoptosis
4 | O=C1[O][Pt]2([Cl])([O]CCO)([NH]C3CCCCC3[NH]2)[O]C1=O (mixture of isomers) [compound 1, Cis,trans,cis-[Pt(ethanedioato)Cl(2-hydroxyethanolato)(1R,2R-DACH)]] | 9100 ± 400 | 2500 ± 500 | 0.18 ± 0.01 ppb of Pt | 0.59 ± 0.03 ppb of Pt | no notable changes compared to oxaliplatin |  |  |  |  |  |  |  |  |  | 8200 ± 400 | 
